Test results taken from patent publication US11672959B2, “Expandable member systems and methods for drug delivery” (Intersect ENT, Inc., priority 2019, dated 2023).

How the values were obtained:
[1] = in vitro release rates for expandable members having varying amounts of crystalline mometasone furoate (FIG. 4); type: physicochemical
From the text: FIG. 4 is a graph comparing the in vitro release rates for expandable members having varying amounts of crystalline mometasone furoate. The amount of crystalline and amorphous drug provided in the drug layer will generally vary depending on the active agent employed, target tissue being treated, therapeutic drug level desired in the target tissue, and/or the drug release profile desired. For example, the ratio of amorphous to crystalline drug in the drug layer can be about 1:3, 1:2, 1:1, 2:1, or 3:1. A higher amorphous to crystalline drug ratio can lead to quicker tissue absorption due to the higher solubility of amorphous drug. In turn, a higher crystalline to amorphous drug ratio can lead to longer residence time of the drug on tissue. […] Thus, a combination of amorphous and crystalline drug in the drug layer can provide immediate release of the active agent to begin treatment of a nose, ear, or throat condition, as well as sustained release of the active agent into the target tissue, as illustrated by the moderate in vitro release rates for drug layers subjected to solvent vapor annealing (SVA) in FIG. 4. In some variations, the drug layer is formed to include about 60% of the active agent as drug crystals. In one variation, the drug layer is formed to include mometasone furoate, where about 60% of the mometasone furoate is in crystalline form. The ratio of crystalline to amorphous drug in the drug layer can be adjusted during the drug layering process onto the expandable member, e.g., during the solvent vapor annealing process, as further described below, or during sterilization.

[2] = plasma MF concentration after balloon expansions in sheep frontal sinus ostia; type: in vivo
[3] = tissue concentration of mometasone furoate after balloon expansion in Eustachian tubes (LCMS); type: in vivo, domestic sheep; conditions: sheep, Eustachian tube mucosa, 1500 μg balloon expanded to 12 atm, read-out: maximum mometasone furoate tissue concentration
Procedure: The Eustachian tubes of eight domestic sheep were accessed transnasally using balloon catheters having drug layers containing 1500 μg of mometasone furoate. The balloon catheters were made as described in Example 1. A singe balloon catheter was expanded to 12 atm of pressure to deliver the mometasone furoate crystals to Eustachian tube tissue and to dilate each contralateral Eustachian tube at its proximal opening. The animals were sacrificed at either 7 days or 30 days after balloon expansion, and mucosa from each Eustachian tube collected and frozen. Mometasone furoate concentration was then quantified using liquid chromatography mass spectrometry (LCMS).

[4] = tissue MF concentration after balloon expansion in sheep frontal sinus ostia; conditions: for concentration at 30 days / concentration at 7 days / concentration at 14 days / concentration at 1 hour: sheep; for concentration at 1 hour: Approx. 1 hour after inflation
Procedure: (§1) The amount of mometasone furoate transferred to the ostia (total MF released) was measured after inflation of balloons having a drug layer including the listed dose of mometasone furoate drug crystals and poly(ethylene glycol) and polysorbate as the excipients.
(§2) In this Example, drug layered balloons were made according to Example 1 and used to dilate sheep frontal ostia.

[5] = MF released from drug layered balloon on inflation in sheep frontal sinus ostia; type: in vivo
Procedure: as §1
Expandable members were made by spray coating 6 mm×20 mm semi-compliant balloons with a drug layer formulation. The drug layer formulation included either a 1500 μg or 3000 μg dose of mometasone furoate, poly(ethylene glycol), and a polysorbate. The drug layered balloons were then exposed in an acetone solvent vapor for 30 minutes.
as §2

[6] = frontal sinus ostia tissue, 3000 μg, Average Tissue MF Concentrations, Frontal Sinus Ostia, MF Dose 3000 μg, Study Arm 1, 2
[7] = nasal passage tissue, 3000 μg, Average Tissue MF Concentrations, Nasal Passage, MF Dose 3000 μg, Study Arm 1, 2

## C[C@@H]1C[C@H]2[C@@H]3CCC4=CC(=O)C=C[C@]4(C)[C@@]3(Cl)[C@@H](O)C[C@]2(C)[C@@]1(OC(=O)c1ccco1)C(=O)CCl [MF, mometasone furoate]
[1]; drug layer contains the active agent only as crystals (100% crystals)
  in vitro release rate: slowest
[1]; drug layer contains the active agent only in amorphous form (0% crystals)
  in vitro release rate: fastest
[1]; drug layers subjected to solvent vapor annealing (SVA), amorphous and crystalline drug
  in vitro release rates: moderate
[2]; MF Dose 1500 μg, 30 days, analytical range 20.0-1000.0 pg/mL
  MF Concentration Plasma: BLQ (Below Limit of Quantitation (≤20.0 pg/mL))
[2]; MF dose 1500 μg, 30 days post the two expansions
  plasma levels: below the limit of quantitation
[3]; 7 days
  concentration at 7 days: 47000 ng/g
[3]; 30 days
  concentration at 30 days: 200 ng/g
[4]; MF Dose 3000 μg, all time points
  average tissue MF concentrations for the frontal sinus ostia relative to therapeutic levels: at or above therapeutic levels
[4]; frontal sinus ostia tissue, 1500 μg, Average 30 day tissue MF Concentration in Sinus Ostia, 36.4% drug crystals, crystal size 78.7 μm, 30 days
  concentration at 30 days: 5000 ng/g
[4]; frontal sinus ostia tissue, 1500 μg, Average 30 day tissue MF Concentration in Sinus Ostia, 62.5% drug crystals, crystal size 128.1 μm, 30 days
  concentration at 30 days: 1000 ng/g
[4]; frontal sinus ostia tissue, 1500 μg, MF Concentration Frontal Sinus Ostia Tissue, MF Dose 1500 μg, explant timepoint 30 days, two expansions
  concentration at 30 days: 5000 ng/g
[4]; frontal sinus ostia tissue, 1500 μg, average tissue MF concentrations for the frontal sinus ostia, MF dose 1500 μg, 30 days, compared with therapeutic level
  concentration at 30 days: > 100 ng/g
[4]; frontal sinus ostia tissue, 1500 μg, mometasone furoate concentrations in tissue at 30 days, crystals sized less than 80 μm, less than 60% of the drug layer containing drug crystals
  concentration at 30 days: ~5000 ng/g
[4]; frontal sinus ostia tissue, 3000 μg, Average 30 day tissue MF Concentration in Sinus Ostia, 60.4% drug crystals, crystal size 91.1 μm, 30 days
  concentration at 30 days: 100 ng/g
[4]; frontal sinus ostia tissue, 3000 μg, Average 30 day tissue MF Concentration in Sinus Ostia, 67.4% drug crystals, crystal size 132.6 μm, 30 days
  concentration at 30 days: 2000 ng/g
[4]; [6]
  concentration at 7 days: 9890 ng/g
  concentration at 14 days: 1250 ng/g
  concentration at 1 hour: 142000 ng/g
[4]; frontal sinus ostia tissue, 3000 μg, Average Tissue MF Concentrations, Frontal Sinus Ostia, MF Dose 3000 μg, Study Arm 1, 2, 30 days
  concentration at 30 days: 100 ng/g
[4]; in vivo, 30 day tissue concentrations (in sheep frontal sinus ostia)
  concentration at 30 days: ≥ 100 ng/g
[4]; [7]
  concentration at 7 days: 60 ng/g
  concentration at 14 days: 20 ng/g
  concentration at 1 hour: 4730 ng/g
[4]; nasal passage tissue, 3000 μg, Average Tissue MF Concentrations, Nasal Passage, MF Dose 3000 μg, Study Arm 1, 2, 30 days
  concentration at 30 days: 1380 ng/g
[5]; Dose 1500 μg, 36.4% drug crystals, crystal size 78.7 μm, PEG and polysorbate excipients
  Total MF Released: 350 µg
[5]; Dose 1500 μg, 62.5% drug crystals, crystal size 128.1 μm
  Total MF Released: 478 µg
[5]; Dose 3000 μg, 60.4% drug crystals, crystal size 91.1 μm
  Total MF Released: 1778 µg
[5]; Dose 3000 μg, 67.4% drug crystals, crystal size 132.6 μm
  Total MF Released: 1058 µg
[5]; MF Dose 1500 μg, 1st inflation, Study Arm 2 (treatment)
  MF Release (% MF Dose): 35 % MF Dose
[5]; MF Dose 1500 μg, 1st inflation, Study Arm 2 (treatment), n=4
  Average MF Release per Inflation: 524 µg
[5]; MF Dose 1500 μg, 2nd inflation, Study Arm 1 (treatment)
  MF Release (% MF Dose): 12 % MF Dose
[5]; MF Dose 1500 μg, 2nd inflation, Study Arm 1 (treatment), n=4
  Average MF Release per Inflation: 176 µg
[5]; MF Dose 1500 μg, Average over first two inflations
  Average MF Release per Inflation: 350 µg
[5]; MF Dose 1500 μg, Table 7
  Total MF Released: 350 µg
[5]; MF Dose 3000 μg, Study Arm 1, two expansions
  Average % MF Release per Inflation: 30%
[5]; MF Dose 3000 μg, Study Arm 1, two expansions, n=32 devices
  Average MF Release per Inflation: 889 µg
[5]; MF Dose 3000 μg, Study Arm 2 (bloody sheep frontal sinus ostia)
  Average % MF Release per Inflation: 28%
[5]; MF Dose 3000 μg, Study Arm 2 (bloody sheep frontal sinus ostia), n=4 devices
  Average MF Release per Inflation: 854 µg
